# Measured values taken from patent US12180084B2, “Cerium (III) carbonate formulations” (THE REGENTS OF THE UNIVERSITY OF CALIFORNIA, priority 2019, dated 2024).
# Assay: MB dye photodegradation in ZnO-based sunscreen film (Neutrogena Sheer Zinc Face Mineral Sunscreen SPF 50)
# Experimental: A commercial ZnO-based sunscreen (Neutrogena Sheer Zinc Face™ Mineral Sunscreen SPF 50 consisting of 21.6% of ZnO solid as the only listed active ingredient) was mixed with Methylene Blue (MB) organic dye as follows. In a plastic cup, (10 g capacity; obtained from Flacktek Inc. USA), sunscreen (3 g; Neutrogena Sheer Zinc Face™ Mineral Sunscreen SPF 50) and an aqueous solution of 10^−3 M MB dye (0.6 mL) was mixed with a spatula for 3 minutes. Immediately afterwards, the mixture was high sheared in a Flactek high-speed mixer at 3500 rpm for 3 min. […] These wet drawn down coupons were treated with UV radiation in a photoreactor, without drying, for varying times and were subsequently directly extracted. The extraction employed ethanol solvent to remove MB dye and permit its quantification prior/post UV radiation exposure, so as to determine the extent of MB dye degradation by subtraction. Specifically, to accomplish this, two small strips (100 mg of each) were cut from the wet drawn-down coupons with a scissor/sharp blade so as to not smudge the film of applied sunscreen, and these strips were subsequently exposed to UV radiation in a photoreactor. The photoreactor was equipped with 14 UV-lamps of 254 nm wavelength and delivering a power of 145-155 lux for 4 h. The relative humidity during UV-exposure was controlled to be 100% by placing a water-filled Petri dish (200 mL capacity) in the photoreactor chamber for at least 16 h prior to start of photocatalysis experiment. […] This resulting clear ethanol solution of MB dye was used for measurement of the MB dye concentration UV-visible spectrophotometry, using the absorbance maximum at 654 nm. A control experiment was similarly performed to quantify amount of MB dye from sunscreen films which never underwent UV-radiation exposure (t=0 time point). […] The extent of dye photodegradation was determined by calculating the percentage of decrease in the absorbance intensity of dye at the wavelength of maximum absorption. […]
smiles,measurement,setting,value
O.O.O.O.O.O.O=C([O-])[O-].O=C([O-])[O-].O=C([O-])[O-].[Ce+3].[Ce+3] [Ce2(CO3)3·6H2O],% of MB dye photodegradation after 4 h of UV irradiation in photoreactor,0.5 wt. % added agent relative to sunscreen weight,36%±2
same,% of MB dye photodegradation after 4 h of UV irradiation in photoreactor,"0.5 wt. % added agent relative to sunscreen weight, listed as Ce2(CO3)3•6H2O synthesized according to Example 3",36 ± 2%
same,% of MB dye photodegradation after 4 h of UV irradiation in photoreactor,1.5 wt. % added agent relative to sunscreen weight,25%±2
